This is an account of results in patent US7745404B2, “Use of calcitonin and calcitonin-like peptides to treat and prevent multiple sclerosis” (Wisconsin Alumni Research Foundation, priority 2002, dated 2010).

The nature of data set [1]: Serum calcium in female C57BL/6J mice, Example 4. In kind it is in vivo. As to conditions: 30 ng Vit D (regardless of whether sCT was provided) compared to 1 ng Vit D. On the procedure:
Collected blood samples were centrifuged at 6000 rpm for 15 minutes; followed by another 60-second spin at 14000 rpm. Serum samples were diluted in 0.1% LaCl3 and serum calcium values were measured using a Perkin Elmer atomic absorption spectrometer.
(§1) Blood samples were collected at multiple time-points and prepared and analyzed as described above. Likewise, statistical analysis was performed as noted above.

For data set [2], the system named is EAE in female C57BL/6J mice. Briefly: EAE in female C57BL/6J mice, calcitonin and Vit D, Example 4. In kind it is in vivo. As to conditions: for Incidence: vehicle pump, animals sick/total. As for the experimental part: To determine the effect of calcitonin and Vit D on EAE in C57BL/6J mice, female C57BL/6J mice were maintained on standard chow until eight weeks of age, and then switched to a purified diet containing 0.87% calcium supplemented with 1 ng or 30 ng of 1,25-(OH)2D3 for one week prior to EAE immunization.
EAE was induced as described above. Mice were injected with 200 ng of B. pertussis toxin on the day of immunization and 48 hours later.
sCT was prepared as described above. One week after immunization, mice were weighed and the pumps were filled with vehicle or 30 μg/kg per day of sCT of body weight to each mouse. The pumps were surgically placed subcutaneously in the upper back of mice anesthetized with 2% isofluorane. At the end of the study, successful delivery of the sCT was assessed by two methods. First, the fluid volume remaining in the pump reservoirs was measured. Second, the remaining sCT was pooled and intraperitoneally injected into C57BL/6J mice that were not included in the initial study. Serum calcium measurements were taken six hours after injection to determine if sCT maintained its bioactivity throughout the study.
Mice were examined daily, for over two weeks, for clinical signs of EAE utilizing the following scoring system as described above.
as §1

Where [3] appears, read: female C57BL/6J, 0.87% calcium diet with 1 ng Vit D.
Where [4] appears, read: female C57BL/6J, 0.87% calcium diet with 30 ng Vit D.

For the compound `C=C1/C(=C\C=C2/CCC[C@]3(C)[C@@H]([C@H](C)CCCC(C)(C)O)CC[C@@H]23)C[C@@H](O)C[C@@H]1O` [Vit D, 1α,25-dihydroxyvitamin D3], the serum calcium levels entry in data set [1] is “elevated”. Also, the EAE score result in data set [2] (female C57BL6J mice, 30 ng Vit D, compared to 1 ng Vit D alone (FIG. 5, Table 6)) is “delayed and diminished the EAE score”. In data set [2] (setting [3]), the “% Sick” value is 67.0% and the Incidence is listed as 6/9 sick. Further, in data set [2] (female C57BL/6J, 0.87% calcium diet with 1 ng Vit D, EAE score 0-5), the Severity was 2.9 ± 0.9. Further, in data set [2] (female C57BL/6J, 0.87% calcium diet with 1 ng Vit D, days post immunization), the “Mean Onset Day” value amounted to 15 ± 2 days. In addition, in data set [2] (setting [4]), the “% Sick” value was found to be 0.0% and the Incidence is recorded as 0/8 sick.
